Assay results reported in US20230095836A1, “SUBSTITUTED 5,6-DIPHENYL-3(2H)-PYRIDAZINONES FOR USE AS FUNGICIDES” (FMC Corporation, priority 2020, published 2023).

How the values were obtained:
Format in all cases: in vivo
Zymoseptoria tritici = assay: Test A: test solution sprayed on wheat seedlings, inoculated next day with Zymoseptoria tritici (wheat leaf blotch); disease rating (100 = 100% disease control, 0 = no control; dash = not tested)
Procedure: The resulting test suspensions were then used in Tests A-F. The test solution was sprayed to the point of run-off on wheat seedlings. The following day the seedlings were inoculated with a spore suspension of Zymoseptoria tritici (the causal agent of wheat leaf blotch) and incubated in a saturated atmosphere at 24° C. for 48 h, and then moved to a growth chamber at 20° C. for 17 days, after which time disease ratings were made. A rating of 100 indicates 100% disease control and a rating of 0 indicates no disease control (relative to the controls). A dash (—) indicates the compound was not tested.

[1] = tested on: Puccinia recondita f. sp. tritici; assay: Test B: test solution sprayed on wheat seedlings, inoculated next day with Puccinia recondita f. sp. tritici (wheat leaf rust); disease rating (100 = 100% disease control, 0 = no control; dash = not tested)
Excerpt: The resulting test suspensions were then used in Tests A-F. The test solution was sprayed to the point of run-off on wheat seedlings. […] A rating of 100 indicates 100% disease control and a rating of 0 indicates no disease control (relative to the controls). A dash (—) indicates the compound was not tested.

[2] = tested on: Blumeria graminis f. sp. tritici; assay: Test C: test suspension sprayed on wheat seedlings, inoculated next day with Blumeria graminis f. sp. tritici (wheat powdery mildew); visual disease rating (100 = 100% disease control, 0 = no control; dash = not tested)
Procedure: The resulting test suspensions were then used in Tests A-F. The test suspension was sprayed to the point of run-off on wheat seedlings. The following day the seedlings were inoculated with a spore dust of Blumeria graminis f. sp. tritici, (also known as Erysiphe graminis f. sp. tritici, the causal agent of wheat powdery mildew) and incubated in a growth chamber at 20° C. for 8 days, after which time visual disease ratings were made. A rating of 100 indicates 100% disease control and a rating of 0 indicates no disease control (relative to the controls). A dash (—) indicates the compound was not tested.

Phakopsora pachyrhizi = assay: Test D: test solution sprayed on soybean seedlings, inoculated next day with Phakopsora pachyrhizi (Asian soybean rust); visual disease rating (100 = 100% disease control, 0 = no control; dash = not tested)
Excerpt: General protocol for preparing test suspensions for Tests A-F: the test compounds were first dissolved in acetone in an amount equal to 3% of the final volume and then suspended at the desired concentration (in ppm) in acetone and purified water (50/50 mix by volume) containing 250 ppm of the surfactant PEG400 (polyhydric alcohol esters). The resulting test suspensions were then used in Tests A-F.
The test solution was sprayed to the point of run-off on soybean seedlings. The following day the seedlings were inoculated with a spore suspension of Phakopsora pachyrhizi (the causal agent of Asian soybean rust) and incubated in a saturated atmosphere at 22° C. for 24 h and then moved to a growth chamber at 22° C. for 8 days, after which time visual disease ratings were made.
A rating of 100 indicates 100% disease control and a rating of 0 indicates no disease control (relative to the controls). A dash (—) indicates the compound was not tested.

Botrytis cinerea = assay: Test E: test suspension sprayed on tomato seedlings, inoculated next day with Botrytis cinerea (tomato Botrytis); visual disease rating (100 = 100% disease control, 0 = no control; dash = not tested)
Procedure: (§1) The resulting test suspensions were then used in Tests A-F. The test suspension was sprayed to the point of run-off on tomato seedlings. The following day the seedlings were inoculated with a spore suspension of Botrytis cinerea (the causal agent of tomato Botrytis) and incubated in a saturated atmosphere at 20° C. for 48 h, and then moved to a growth chamber at 24° C. for 3 days, after which time visual disease ratings were made. A rating of 100 indicates 100% disease control and a rating of 0 indicates no disease control (relative to the controls). A dash (—) indicates the compound was not tested.

Alternaria solani = assay: Test F: test suspension sprayed on tomato seedlings, inoculated next day with Alternaria solani (tomato early blight); visual disease rating (100 = 100% disease control, 0 = no control; dash = not tested)
Procedure: as §1, with “Alternaria solani” for “Botrytis cinerea”, “early blight)” for “Botrytis)”, “27°” for “20°”, “20°” for “24°”

| SMILES | Test A disease control rating (Zymoseptoria tritici; 50 ppm) [%] | Test B disease control rating ([1]; 50 ppm) [%] | Test C disease control rating ([2]; 50 ppm) [%] | Test D disease control rating (Phakopsora pachyrhizi; 50 ppm) [%] | Test E disease control rating (Botrytis cinerea; 50 ppm) [%] | Test F disease control rating (Alternaria solani; 50 ppm) [%] | further results |
| --- | --- | --- | --- | --- | --- | --- | --- |
| COc1ccc(Cl)c(-c2nn(C)c(=O)c(OC)c2-c2c(F)cccc2F)c1 [Compound 50] | 100 | 98 | 99 | 36 | 96 | 100 |  |
| COc1ccc(Br)c(-c2nn(C)c(=O)c(Cl)c2-c2ccc(F)cc2Cl)c1 [Compound 118] | 99 | 100 | 99 | 100 | 98 | 100 |  |
| COc1ccc(-c2nn(C)c(=O)c(OC)c2-c2ccc(F)cc2Cl)c(F)c1 [Compound 166] | 100 | 91 | 79 | 0 | 95 | 67 |  |
| COc1cc(F)c(Cl)c(-c2nn(C)c(=O)c(Cl)c2-c2ccc(F)cc2Cl)c1 [Compound 157] | 98 | 100 | 100 | 100 | 99 | 100 |  |
| COc1cc(OC)c([N+](=O)[O-])c(-c2nn(C)c(=O)cc2-c2c(F)cccc2F)c1Cl [Compound 31] | 0 | 9 | 0 | 0 | 0 | 0 |  |
| Cc1ccc(Cl)c(-c2nn(C)c(=O)c(C)c2-c2ccc(F)cc2Cl)c1 [Compound 136, 5-(2-chloro-4-fluorophenyl)-6-(2-chloro-5-methylphenyl)-2,4-dimethyl-3(2H)-pyridazinone] |  |  |  |  |  |  | pest or weed control at 50 ppm (Zymoseptoria tritici; 50 ppm): 99%; pest or weed control at 50 ppm ([1]; 50 ppm): 100%; pest or weed control at 50 ppm ([2]; 50 ppm): 100%; pest or weed control at 50 ppm (Phakopsora pachyrhizi; 50 ppm): 97%; pest or weed control at 50 ppm (Botrytis cinerea; 50 ppm): 95%; pest or weed control at 50 ppm (Alternaria solani; 50 ppm): 40% |
| COc1c(-c2ccc(F)cc2Cl)c(-c2cc(F)ccc2Cl)nn(C)c1=O [Compound 120] | 100 | 100 | 99 | 77 | 33 | 0 |  |
| COc1cc(C#N)cc(-c2cc(=O)n(C)nc2-c2cc(C#N)cc(OC)c2)c1 [Compound 204] | 2 | 0 | 0 | 39 | 0 | 0 |  |
| COc1c(-c2ccc(F)cc2Cl)c(-c2cccc(F)c2F)nn(C)c1=O [Compound 116] | 100 | 100 | 99 | 52 | 98 | 100 |  |
| CCn1nc(-c2ccc(F)cc2Cl)c(-c2ccc(F)cc2Cl)c(Cl)c1=O [Compound 24] |  |  |  |  |  |  | Test A disease control rating (Zymoseptoria tritici; 250 ppm): 100%; Test B disease control rating ([1]; 250 ppm): 80%; Test C disease control rating ([2]; 250 ppm): 93%; Test D disease control rating (Phakopsora pachyrhizi; 250 ppm): 0%; Test E disease control rating (Botrytis cinerea; 250 ppm): 100%; Test F disease control rating (Alternaria solani; 250 ppm): 0% |
| CCc1c(-c2ccc(F)cc2Cl)c(-c2cc(F)ccc2Cl)nn(C)c1=O [Compound 129] | 100 | 100 | 100 | 67 | 99 | 100 |  |
| COc1c(-c2ccc(F)cc2Cl)c(-c2cccc(Cl)c2F)nn(C)c1=O [Compound 109] | 100 | 74 | 99 | 0 | 96 | 85 |  |
| COc1cc(F)cc(-c2nn(C)c(=O)cc2-c2c(F)cccc2F)c1 [Compound 27] |  |  |  |  |  |  | Test A disease control rating (Zymoseptoria tritici; 250 ppm): 99%; Test B disease control rating ([1]; 250 ppm): 99%; Test C disease control rating ([2]; 250 ppm): 97%; Test D disease control rating (Phakopsora pachyrhizi; 250 ppm): 56%; Test E disease control rating (Botrytis cinerea; 250 ppm): 96%; Test F disease control rating (Alternaria solani; 250 ppm): 0% |
| Cn1nc(-c2ccc(F)cc2Cl)c(-c2ccc(F)cc2Cl)c(CCl)c1=O [Compound 170] | 99 | 89 | 76 | 0 | 51 | 80 |  |
| COc1cccc(-c2nn(C)c(=O)c(OC)c2-c2ccc(F)cc2Cl)c1Cl [Compound 146] | 100 | 100 | 100 | 96 | 98 | 99 |  |
| Cn1nc(-c2cccc(F)c2Cl)c(-c2ccc(F)cc2Cl)c(Cl)c1=O [Compound 145] | 100 | 100 | 100 | 99 | 100 | 100 |  |
| CCc1c(-c2c(F)cccc2F)c(-c2cc(OC)ccc2Cl)nn(C)c1=O [Compound 179, 6-(2-chloro-5-methoxyphenyl)-5-(2,6-difluorophenyl)-4-ethyl-2-methyl-3(2H)-pyridazinone] |  |  |  |  |  |  | pest or weed control at 50 ppm (Zymoseptoria tritici; 50 ppm): 100%; pest or weed control at 50 ppm ([1]; 50 ppm): 100%; pest or weed control at 50 ppm ([2]; 50 ppm): 100%; pest or weed control at 50 ppm (Phakopsora pachyrhizi; 50 ppm): 100%; pest or weed control at 50 ppm (Botrytis cinerea; 50 ppm): 94%; pest or weed control at 50 ppm (Alternaria solani; 50 ppm): 100% |
| Cn1nc(-c2ccccc2Cl)c(-c2ccc(F)cc2Cl)c(O)c1=O [Compound 182] | 0 | 0 | 0 | 0 | 0 | 0 |  |
| CCn1nc(-c2c(F)cccc2F)c(-c2cc(OC)cc(OC)c2)cc1=O [Compound 4, 6-(2,6-difluorophenyl)-5-(3,5-dimethoxyphenyl)-2-ethyl-3(2H)-pyridazinone] |  |  |  |  |  |  | pest or weed control at 250 ppm (Zymoseptoria tritici; 250 ppm): 66%; pest or weed control at 250 ppm ([1]; 250 ppm): 0%; pest or weed control at 250 ppm ([2]; 250 ppm): 0%; pest or weed control at 250 ppm (Phakopsora pachyrhizi; 250 ppm): 0%; pest or weed control at 250 ppm (Botrytis cinerea; 250 ppm): 9%; pest or weed control at 250 ppm (Alternaria solani; 250 ppm): 0% |
| COc1cc(OC)cc(-c2nn(C)c(=O)c(C)c2-c2c(F)cccc2F)c1 [Compound 21, 5-(2,6-difluorophenyl)-6-(3,5-dimethoxyphenyl)-2,4-dimethyl-3 (2H)-pyridazinone] |  |  |  |  |  |  | pest or weed control at 250 ppm (Zymoseptoria tritici; 250 ppm): 100%; pest or weed control at 250 ppm ([1]; 250 ppm): 100%; pest or weed control at 250 ppm ([2]; 250 ppm): 100%; pest or weed control at 250 ppm (Phakopsora pachyrhizi; 250 ppm): 100%; pest or weed control at 250 ppm (Botrytis cinerea; 250 ppm): 100%; pest or weed control at 250 ppm (Alternaria solani; 250 ppm): 99% |
| COc1cc(OC)cc(-c2nn(C)c(=O)c(Br)c2-c2ccc(F)cc2Cl)c1 [Compound 67] | 99 | 100 | 95 | 98 | 99 | 99 |  |
| CCOc1ccc(Cl)c(-c2nn(C)c(=O)c(C)c2-c2ccc(F)cc2Cl)c1 [Compound 175] | 100 | 100 | 99 | 100 | 98 | 100 |  |
